Reference: publication PMC8509773, “3-Pyridinylidene Derivatives of Chemically Modified Lupane and Ursane Triterpenes as Promising Anticancer Agents by Targeting Apoptosis” (International Journal of Molecular Sciences, 2021)

Assays:
Assay in all cases: NCI-60 SRB screening (one-dose and five-dose)
Type in all cases: cell-based, human
786-0 = conditions: 48 h
Procedure: (§1) The compounds were added at a single concentration and the cell cultures were incubated for 48 h. The end point determinations were made with a protein binding dye, sulforhodamine B (SRB). […] The percentage of growth was evaluated spectrophotometrically versus controls not treated with test agents after 48-h exposure and using SRB protein assay to estimate cell viability or growth. […] Furthermore, mean graph midpoints (MG_MID) were calculated for each of the parameters, giving an average activity parameter over all cell lines for the tested compound. For the MG_MID calculation, insensitive cell lines were included with the highest concentration tested.

A498 = conditions: 48 h
Procedure: as §1

A549/ATCC = conditions: 48 h
Procedure: as §1

ACHN = conditions: 48 h
Procedure: as §1

COLO 205 = conditions: 48 h
Procedure: as §1

DU-145 = conditions: 48 h
Procedure: as §1

EKVX = conditions: 48 h
Procedure: as §1

HCC-2998 = conditions: 48 h
Procedure: as §1

HCT-116 = conditions: 48 h
Procedure: as §1

HCT-15 = conditions: 48 h
Procedure: as §1

HL-60(TB) = conditions: 48 h
Procedure: as §1

HOP-62 = conditions: 48 h
Procedure: as §1

HOP-92 = conditions: 48 h
Procedure: as §1

HT29 = conditions: 48 h
Procedure: as §1

IGROV1 = conditions: 48 h
Procedure: as §1

K-562 = conditions: 48 h
Procedure: as §1

MALME-3M = conditions: 48 h
Procedure: as §1

MCF7 = conditions: 48 h
Procedure: as §1

MDA-MB-435 = conditions: 48 h
Procedure: as §1

MDA-MB-468 = conditions: 48 h
Procedure: as §1

MOLT-4 = conditions: 48 h
Procedure: as §1

OVCAR-4 = conditions: 48 h
Procedure: as §1

OVCAR-8 = conditions: 48 h
Procedure: as §1

PC-3 = conditions: 48 h
Procedure: as §1

RPMI-8226 = conditions: 48 h
Procedure: as §1

RXF 393 = conditions: 48 h
Procedure: as §1

SF-268 = conditions: 48 h
Procedure: as §1

SF-295 = conditions: 48 h
Procedure: as §1

SF-539 = conditions: 48 h
Procedure: as §1

SK-MEL-28 = conditions: 48 h
Procedure: as §1

SK-MEL-5 = conditions: 48 h
Procedure: as §1

SK-OV-3 = conditions: 48 h
Procedure: as §1

SN12C = conditions: 48 h
Procedure: as §1

SNB-19 = conditions: 48 h
Procedure: as §1

SR = conditions: Homo sapiens, five dose 0.01–100 μM, 48 h
Procedure: as §1

SW-620 = conditions: 48 h
Procedure: as §1

T-47D = conditions: 48 h
Procedure: as §1

U251 = conditions: 48 h
Procedure: as §1

UACC-257 = conditions: 48 h
Procedure: as §1

UACC-62 = conditions: 48 h
Procedure: as §1

[1] = Homo sapiens, five dose 0.01–100 μM

`C[C@H]1[C@@H]2[C@H]3CC[C@@H]4[C@@]5(C)C/C(=C\c6cccnc6)C(=O)C(C)(C)[C@@H]5CC[C@@]4(C)[C@]3(C)CC[C@]23CO[C@@]1(C)[C@@H](C(=O)/C=C/c1cccnc1)C3` [Compound 6, 3-Oxo-2-(3-pyridinylidene)-21-[3-(2E-pyridinyl)-prop-2-en-1-one]-20β,28-epoxy-18α,19βH-ursane] was tested, and the “Growth Percent” value (786-0; 786-0, 10 μM) was −38.97%, the GI50 (786-0; Homo sapiens, 786-0, five dose 0.01–100 μM) was 920 nM and the “Growth Percent” value (A498; A498, 10 μM) was −59.07%. For the same compound, the GI50 (A498; Homo sapiens, A498, five dose 0.01–100 μM) was 780 nM, the “Growth Percent” value (A549/ATCC; 10 μM) was −24.64% and the GI50 (A549/ATCC; [1]) was 1270 nM. For the same compound, the “Growth Percent” value (ACHN; 10 μM) was −22.16%, the GI50 (ACHN; [1]) was 1410 nM and the “Growth Percent” value (COLO 205; COLO 205, 10 μM) was −56.84%. For the same compound, the GI50 (COLO 205; Homo sapiens, COLO 205, five dose 0.01–100 μM) was 1430 nM, the “Growth Percent” value (DU-145; DU-145, 10 μM) was −28.80% and the GI50 (DU-145; Homo sapiens, DU-145, five dose 0.01–100 μM) was 930 nM. For the same compound, the “Growth Percent” value (EKVX; 10 μM) was −1.58%, the GI50 (EKVX; [1]) was 1720 nM and the “Growth Percent” value (HCC-2998; HCC-2998, 10 μM) was −67.18%. The GI50 (HCC-2998; Homo sapiens, HCC-2998, five dose 0.01–100 μM) was 890 nM, the “Growth Percent” value (HCT-116; HCT-116, 10 μM) was −45.63% and the GI50 (HCT-116; Homo sapiens, HCT-116, five dose 0.01–100 μM) was 230 nM. The “Growth Percent” value (HCT-15; HCT-15, 10 μM) was −15.30%, the GI50 (HCT-15; Homo sapiens, HCT-15, five dose 0.01–100 μM) was 1110 nM and the “Growth Percent” value (HL-60(TB); 10 μM) was 14.49%. The GI50 (HL-60(TB); [1]) was 560 nM, the “Growth Percent” value (HOP-62; HOP-62, 10 μM) was −13.55% and the GI50 (HOP-62; Homo sapiens, HOP-62, five dose 0.01–100 μM) was 1560 nM. The “Growth Percent” value (HOP-92; HOP-92, 10 μM) was −19.97%, the GI50 (HOP-92; Homo sapiens, HOP-92, five dose 0.01–100 μM) was 820 nM and the “Growth Percent” value (HT29; HT29, 10 μM) was 26.36%. For the same compound, the GI50 (HT29; Homo sapiens, HT-29, HT29, five dose 0.01–100 μM) was 1500 nM, the GI50 (IGROV1; Homo sapiens, IGROV-1, IGROV1, five dose 0.01–100 μM) was 960 nM and the “Growth Percent” value (IGROV1; IGROV1, 10 μM) was 1.25%. The GI50 (K-562; Homo sapiens, K562, K-562, five dose 0.01–100 μM) was 30 nM, the “Growth Percent” value (K-562; K-562, 10 μM) was 6.51% and the “Growth Percent” value (MALME-3M; 10 μM) was −33.54%. The GI50 (MALME-3M; [1]) was 800 nM, the GI50 (MCF7; Homo sapiens, MCF7, five dose 0.01–100 μM) was 910 nM and the “Growth Percent” value (MCF7; MCF7, 10 μM) was 9.88%. The GI50 (MDA-MB-435; Homo sapiens, MDA-MB-435, MDA-B-435, five dose 0.01–100 μM) was 1090 nM, the “Growth Percent” value (MDA-MB-435; MDA-MB-435, 10 μM) was −7.30% and the GI50 (MDA-MB-468; Homo sapiens, MDA-MB-468, five dose 0.01–100 μM) was 860 nM. For the same compound, the “Growth Percent” value (MDA-MB-468; MDA-MB-468, 10 μM) was −5.83%, the GI50 (MOLT-4; Homo sapiens, MOLT-4, five dose 0.01–100 μM) was 170 nM and the “Growth Percent” value (MOLT-4; MOLT-4, 10 μM) was 16.72%. For the same compound, the GI50 (OVCAR-4; Homo sapiens, OVCAR-4, five dose 0.01–100 μM) was 1490 nM, the “Growth Percent” value (OVCAR-4; OVCAR-4, 10 μM) was 18.62% and the GI50 (OVCAR-8; Homo sapiens, OVCAR-8, five dose 0.01–100 μM) was 1600 nM. The “Growth Percent” value (OVCAR-8; OVCAR-8, 10 μM) was −13.55%, the GI50 (PC-3; Homo sapiens, PC-3, five dose 0.01–100 μM) was 260 nM and the “Growth Percent” value (PC-3; PC-3, 10 μM) was −3.56%. For the same compound, the GI50 (RPMI-8226; Homo sapiens, RPMI-8226, five dose 0.01–100 μM) was 160 nM, the “Growth Percent” value (RPMI-8226; RPMI-8226, 10 μM) was 5.06% and the GI50 (RXF 393; Homo sapiens, RXF 393, five dose 0.01–100 μM) was 830 nM. For the same compound, the “Growth Percent” value (RXF 393; RXF 393, 10 μM) was −91.75%, the GI50 (SF-268; Homo sapiens, SF-268, five dose 0.01–100 μM) was 1310 nM and the “Growth Percent” value (SF-268; SF-268, 10 μM) was 7.10%. The GI50 (SF-295; Homo sapiens, SF-295, five dose 0.01–100 μM) was 1690 nM, the “Growth Percent” value (SF-295; SF-295, 10 μM) was 6.07% and the GI50 (SF-539; Homo sapiens, SF-539, five dose 0.01–100 μM) was 1020 nM. The “Growth Percent” value (SF-539; SF-539, 10 μM) was −32.36%, the GI50 (SK-MEL-28; Homo sapiens, SK-MEL-28, five dose 0.01–100 μM) was 940 nM and the “Growth Percent” value (SK-MEL-28; SK-MEL-28, 10 μM) was −17.77%. The GI50 (SK-MEL-5; Homo sapiens, SK-MEL-5, five dose 0.01–100 μM) was 820 nM, the “Growth Percent” value (SK-MEL-5; SK-MEL-5, 10 μM) was −82.25% and the GI50 (SK-OV-3; Homo sapiens, SK-OV-3, five dose 0.01–100 μM) was 5900 nM. For the same compound, the “Growth Percent” value (SK-OV-3; SK-OV-3, 10 μM) was 58.93%, the “Growth Percent” value (SN12C; 10 μM) was −17.67% and the GI50 (SN12C; [1]) was 940 nM. The GI50 (SNB-19; Homo sapiens, SNB-19, five dose 0.01–100 μM) was 850 nM, the “Growth Percent” value (SNB-19; SNB-19, 10 μM) was 2.48% and the GI50 (SR) was 160 nM. The GI50 (SW-620; Homo sapiens, SW-620, five dose 0.01–100 μM) was 980 nM, the “Growth Percent” value (SW-620; SW-620, 10 μM) was −26.39% and the GI50 (T-47D; Homo sapiens, T47D, T -47D, five dose 0.01–100 μM) was 1980 nM. For the same compound, the “Growth Percent” value (T-47D; T-47D, 10 μM) was 24.61%, the GI50 (U251; Homo sapiens, U-251, U251, five dose 0.01–100 μM) was 1040 nM and the “Growth Percent” value (U251; U251, 10 μM) was −68.02%. For the same compound, the GI50 (UACC-257; Homo sapiens, UACC-257, five dose 0.01–100 μM) was 1670 nM, the “Growth Percent” value (UACC-257; UACC-257, 10 μM) was 13.16% and the GI50 (UACC-62; Homo sapiens, UACC-62, five dose 0.01–100 μM) was 600 nM. For the same compound, the “Growth Percent” value (UACC-62; UACC-62, 10 μM) was −25.57%.
